In ChEMBL document CHEMBL6120965, “Structure-Activity Relationship Studies Leading to the Discovery of Highly Water-Soluble and Biocompatible Acyclic Cucurbit[n]uril FY-3451 as a Universal Antagonist That Rapidly Reverses Neuromuscular Blocking Agents In Vivo” (J Med Chem, 2024):

Key:
[1] = Water solubility of the compound measured at 25 degreeC; assay type: physicochemical
[2] = Solubility of the compound in sodium phosphate buffered water; assay type: physicochemical
Rattus norvegicus [3] = assay: Recovery of Roc-induced neuromuscular block in Sprague-Dawley rat assessed as […] ratio (TOFr) >= 90% by measuring recovery time at 25 mg/kg, iv (reference value: 597 seconds); assay type: functional
Rattus norvegicus [4] = assay: Recovery of CisA-induced neuromuscular block in Sprague-Dawley rat assessed as […] ratio (TOFr) >= 90% by measuring recovery time at 80 mg/kg, iv (reference value: 784 seconds); assay type: functional
Rattus norvegicus [5] = assay: Recovery of CisA-induced neuromuscular block in Sprague-Dawley rat assessed as […] ratio (TOFr) >= 90% by measuring recovery time at 120 mg/kg, iv (reference value: 784 seconds); assay type: functional
Rattus norvegicus [6] = assay: Recovery of Vec-induced neuromuscular block in Sprague-Dawley rat assessed as […] ratio (TOFr) >= 90% by measuring recovery time at 25 mg/kg, iv (reference value: 525 seconds); assay type: functional
Rattus norvegicus [7] = assay: Recovery of Pan-induced neuromuscular block in Sprague-Dawley rat assessed as […] ratio (TOFr) >= 90% by measuring recovery time at 25 mg/kg, iv (reference value: 3600 seconds); assay type: functional
Rattus norvegicus [8] = assay: Recovery of IMC-1-induced neuromuscular block in Sprague-Dawley rat assessed as […] ratio (TOFr) >= 90% by measuring recovery time at 10 mg/kg, iv (reference value: 4021 seconds); assay type: functional
[9] = Toxicity in iv dosed Sprague-Dawley rat assessed as maximum tolerated dose measured upto 14 days; assay type: organism-based; conditions: in vivo, 336 h, time < 14 day
Rocuronium = assay: Binding affinity to Rocuronium by Competition UV-Vis titration method
Cisatracurium = assay: Binding affinity to Cisatracurium by Competition UV-Vis titration method
Vecuronium = assay: Binding affinity to Vecuronium by Competition UV-Vis titration method
Pancuronium = assay: Binding affinity to Pancuronium by Competition UV-Vis titration method
[10] = tested on: Midazolium-based-macrocycle; assay: Binding affinity to Midazolium-based-macrocycle by Competition UV-Vis titration method
Rhodamine 6G = assay: Binding affinity to Rhodamine 6G by Competition UV-Vis titration method
[11] = tested on: Trans-cydohexane-1,4-diartunonium dichloride; assay: Binding affinity to Trans-[…] dichloride by Competition UV-Vis titration method
Proflavine = assay: Binding affinity to Proflavine by Competition UV-Vis titration method
[12] = Therapeutic index, ratio of toxicity in iv dosed Sprague-Dawley rat assessed as maximum tolerated dose to recovery of Roc/Vec/Panc-induced neuromuscular block in Sprague-Dawley rat assessed as […] ratio (TOFr) by measuring recovery time at 25 mg/kg, iv; assay type: organism-based; conditions: in vivo, read-out: TI
[13] = Therapeutic index, ratio of toxicity in iv dosed Sprague-Dawley rat assessed as maximum tolerated dose to recovery of CisA-induced neuromuscular block in Sprague-Dawley rat assessed as […] ratio (TOFr) by measuring recovery time at 80 to 100 mg/kg, iv; assay type: organism-based; conditions: in vivo, dose 80-100 mg/kg, read-out: TI
Rattus norvegicus [14] = assay: Recovery of CisA-induced neuromuscular block in Sprague-Dawley rat assessed as […] ratio (TOFr) >= 90% by measuring recovery time at 100 mg/kg, iv (reference value: 784 seconds); assay type: functional
Rattus norvegicus [15] = assay: Recovery of CisA-induced neuromuscular block in Sprague-Dawley rat assessed as […] ratio (TOFr) >= 90% by measuring recovery time at 150 mg/kg, iv (reference value: 784 seconds); assay type: functional
[16] = Toxicity in Sprague-Dawley rat assessed as body weight loss measured at 2000 mg/kg, iv upto 14 days; assay type: organism-based; conditions: in vivo, 336 h, time < 14 day
[17] = Toxicity in human whole blood assessed as clotting indices measured at 1 mg/ml; assay type: tissue-based
[18] = Toxicity in human plasma assessed as abnormality in aPTT by measuring clotting time at < 4.8 mg/kg; assay type: organism-based; conditions: in vivo
[19] = Hemolytic activity in Sprague-Dawley rat erythrocytes assessed as hemolysis at 0.51 to 32.8 mg/ml; assay type: toxicity, cell-based, Erythrocyte; conditions: dose 0.51-32.8 mg/ml, read-out: Activity
[20] = Hemolytic activity in human erythrocytes assessed as hemolysis at 0.51 to 32.8 mg/ml; assay type: toxicity, cell-based, Erythrocyte; conditions: dose 0.51-32.8 mg/ml, read-out: Activity
[21] = Cytotoxicity against rat H9c2 cells assessed as cell viability measured after 25 hrs by CCK-8 assay; assay type: toxicity, cell-based
[22] = Cytotoxicity against rat H9c2 cells assessed as cell viability at 0.5 mg/ml measured after 25 hrs by CCK-8 assay; assay type: toxicity, cell-based; conditions: read-out: Activity
[23] = Toxicity in Sprague-Dawley rat assessed as histological changes in heart measured at 2000 mg/kg, iv upto 14 days by H and E assay; assay type: organism-based; conditions: in vivo, 336 h, time < 14 day
[24] = Toxicity in Sprague-Dawley rat assessed as histological changes in liver measured at 2000 mg/kg, iv upto 14 days by H and E assay; assay type: organism-based; conditions: in vivo, 336 h, time < 14 day
[25] = Toxicity in Sprague-Dawley rat assessed as histological changes in spleen measured at 2000 mg/kg, iv upto 14 days by H and E assay; assay type: organism-based; conditions: in vivo, 336 h, time < 14 day
[26] = Toxicity in Sprague-Dawley rat assessed as histological changes in lungs measured at 2000 mg/kg, iv upto 14 days by H and E assay; assay type: organism-based; conditions: in vivo, 336 h, time < 14 day
[27] = Toxicity in Sprague-Dawley rat assessed as histological changes in kidney measured at 2000 mg/kg, iv upto 14 days by H and E assay; assay type: organism-based; conditions: in vivo, 336 h, time < 14 day
Rattus norvegicus [28] = assay: Recovery of CisA-induced neuromuscular block in Sprague-Dawley rat assessed as […] ratio (TOFr) by measuring recovery time at 25 mg/kg, iv (reference value: 784 seconds); assay type: functional
Rattus norvegicus [29] = assay: Recovery of Roc-induced neuromuscular block in Sprague-Dawley rat assessed as […] ratio (TOFr) by measuring recovery time at 12.5 mg/kg, iv (reference value: […]); assay type: functional

Row | Structure (SMILES) | solubility [1] | Time (Rattus norvegicus [3]) | Time (Rattus norvegicus [6]) | Time (Rattus norvegicus [7]) | Time (Rattus norvegicus [8]) | MTD [9] | Ka (Rocuronium) | Ka (Cisatracurium) | Ka (Vecuronium) | Ka (Pancuronium) | Ka [10] | Ka (Rhodamine 6G) | Ka [11] | Ka (Proflavine) | selectivity ratio [12] | selectivity ratio [13] | other results
1 | Cc1c(C)c(OCCCS(=O)(=O)[O-])c2c(c1OCCCS(=O)(=O)[O-])CN1C(=O)N3CN4C(=O)N5CN6C(=O)N7CN8C(=O)N9Cc%10c(c(OCCCS(=O)(=O)[O-])c(C)c(C)c%10OCCCS(=O)(=O)[O-])CN%10C(=O)N(CN%11C(=O)N(CN%12C(=O)N(CN%13C(=O)N(C2)[C@]1(C)[C@]%133C)[C@@H]4[C@@H]5%12)[C@@H]6[C@@H]7%11)[C@]8(C)[C@]%109C.[Na+].[Na+].[Na+].[Na+] | 500 mg/mL | 30 s | 13 s | 21 s | 13 s | 500 mg/kg | 9.84 10^7/M | 0.13 10^7/M | 2.92 10^7/M | 51 10^7/M | 119 10^7/M | 0.045 10^7/M | 0.069 10^7/M | 13 10^7/M | 60 | 18.8 | solubility [2]: 563 mg/mL; Time (Rattus norvegicus [4]): 35 s; Time (Rattus norvegicus [5]): 28 s
2 | C[C@]12N3Cc4c(c(OCCCS(=O)(=O)[O-])c5c(c4OCCCS(=O)(=O)[O-])CCC5)CN1C(=O)N1CN4C(=O)N5CN6C(=O)N7CN8C(=O)N9Cc%10c(c(OCCCS(=O)(=O)[O-])c%11c(c%10OCCCS(=O)(=O)[O-])CCC%11)CN%10C(=O)N(CN%11C(=O)N(CN%12C(=O)N(CN(C3=O)[C@]12C)[C@@H]4[C@H]%125)[C@@H]6[C@H]%117)[C@]8(C)[C@@]9%10C.[Na+].[Na+].[Na+].[Na+] | 1000 mg/mL | 24 s | 15 s | 20 s | 12 s | 500 mg/kg | 20.1 10^7/M | 0.088 10^7/M | 21 10^7/M | 1.22 10^7/M | 339 10^7/M | 0.1 10^7/M | 0.043 10^7/M | 29.6 10^7/M | 60 | 18.8 | Time (Rattus norvegicus [14]): 34 s; Time (Rattus norvegicus [15]): 24 s; Activity [16]: Non-toxic; Activity [17]: Non-toxic; Activity [18]: Non-toxic; hemolysis [19]: < 5%; hemolysis [20]: < 5%; IC50 at 25 h [21]: > 1000 mg/L; viability at 25 h, 0.5 mg/ml [22]: 80%; Activity [23]: Non-toxic; Activity [24]: Non-toxic; Activity [25]: Non-toxic; Activity [26]: Non-toxic; Activity [27]: Non-toxic; Time (Rattus norvegicus [28]): 27 s; Time (Rattus norvegicus [29]): 15 s
